GI50 and TGI data for one compound are collected here from PubChem BioAssay (NCI).

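The compound was tested at five concentrations on cells cultured in 96-well plates, with a 48-hour exposure period. Here, GI50 denotes the concentration required for 50% inhibition of growth. TGI: concentration producing complete growth inhibition.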 A value given as a limit tells only on which side of the number the result lay.

Some test systems named below: SR leukemia; KM12 colon; UO-31 renal; HS 578T breast; SK-MEL-28 melanoma; SF-268 CNS; HT29 colon; EKVX NSCLC; SK-MEL-2 melanoma; OVCAR-8 ovarian.
Assay in all cases: NCI-60 cell line screen, 48 h

Regarding `Cc1ccccc1NC(=S)Nc1ccccn1`, the GI50 in the experiment with SR leukemia, in the experiment with KM12 colon, with UO-31 renal, with HS 578T breast, in the experiment with SK-MEL-28 melanoma and with SF-268 CNS was greater than 100 µM in each case. In addition, the GI50 with HT29 colon is greater than 100 µM; in the experiment on EKVX NSCLC it was 49 µM; with SK-MEL-2 melanoma, greater than 100 µM; in the experiment with OVCAR-8 ovarian it was greater than 100 µM. Further, the TGI with SR leukemia, in the experiment with KM12 colon, in the experiment on UO-31 renal, in the experiment on HS 578T breast, in the experiment on SK-MEL-28 melanoma and in the experiment with SF-268 CNS was greater than 100 µM throughout. Besides, the TGI in the experiment with HT29 colon, with EKVX NSCLC, in the experiment on SK-MEL-2 melanoma and in the experiment with OVCAR-8 ovarian was greater than 100 µM throughout.
